Data set [1] concerns larvae of marine crustaceans Artemia salina (Leach). The data set can be described thus: Brine shrimp toxicity bioassay. The data set is classed as in vivo. The settings on record: 24 h of exposure.
A further data set concerns HCT-15. In words: NCI60 screen. The data set is classed as cell-based. The settings on record: Homo sapiens, HCT-15, read-out: inhibition of cell growth.
In another data set the test system is K-562. In words: NCI60 screen. The data set is classed as cell-based. The following applies: Homo sapiens, K562, read-out: inhibition of cell growth.
Data set [2] in a line: Immunosuppressive activity.
The next data set deals with RXF 393. The data set can be described thus: NCI60 screen. The data set is classed as cell-based. The settings on record: Homo sapiens, RXF 393, read-out: inhibition of cell growth.
The test system of a further data set is COLO 205. In words: NCI60 screen. The class given is cell-based. The following applies: Homo sapiens, COLO 205, read-out: inhibition of cell growth.
The test system of another data set is T-47D. In words: NCI60 screen. The data set is classed as cell-based. The following applies: Homo sapiens, T47D, read-out: inhibition of cell growth.
The subject of the next data set is HT29. In words: NCI60 screen. The data set is classed as cell-based. The settings on record: Homo sapiens, HT-29, read-out: inhibition of cell growth.
The test system of a further data set is SR. In words: NCI60 screen. The data set is classed as cell-based. The settings on record: Homo sapiens, read-out: inhibition of cell growth.
The test system of a further data set is OVCAR-3. In words: NCI60 screen. The class given is cell-based. The settings on record: Homo sapiens, OVCAR-3, read-out: inhibition of cell growth.
In another data set the test system is UACC-257. In words: NCI60 screen. The data set is classed as cell-based. The settings on record: Homo sapiens, UACC-257, read-out: inhibition of cell growth.
The next data set relates to UACC-62. In words: NCI60 screen. The data set is classed as cell-based. The settings on record: Homo sapiens, UACC-62, read-out: inhibition of cell growth.
Another data set deals with SW-620. In words: NCI60 screen. The data set is classed as cell-based. The following applies: Homo sapiens, SW-620, read-out: inhibition of cell growth.
The next data set has as its system MCF7. The data set can be described thus: NCI60 screen. The data set is classed as cell-based. The following applies: Homo sapiens, MCF7, read-out: inhibition of cell growth.
In another data set the test system is CAKI-1. In words: NCI60 screen. The class given is cell-based. The settings on record: Homo sapiens, CAKI-1, read-out: inhibition of cell growth.
Another data set concerns BT-549. In words: NCI60 screen. The data set is classed as cell-based. The settings on record: Homo sapiens, BT-549, read-out: inhibition of cell growth.
Another data set concerns HL-60(TB). The data set can be described thus: NCI60 screen. The following applies: Homo sapiens, HL-60, read-out: inhibition of cell growth. The class given is cell-based.
For another data set, the system named is TK-10. In words: NCI60 screen. The settings on record: Homo sapiens, TK-10, read-out: inhibition of cell growth. The data set is classed as cell-based.
Another data set deals with HCT-116. In words: NCI60 screen. The class given is cell-based. The following applies: Homo sapiens, HCT-116, read-out: inhibition of cell growth.
The subject of a further data set is MDA-MB-435. In words: NCI60 screen. The data set is classed as cell-based. The settings on record: Homo sapiens, MDA-MB-435, read-out: inhibition of cell growth.
In data set [3] the test system is NCI60 human tumor cell lines. In words: NCI60 screen. The data set is classed as cell-based.
The subject of the next data set is DU-145. In words: NCI60 screen. The data set is classed as cell-based. The following applies: Homo sapiens, DU-145, read-out: inhibition of cell growth.

`CC1=CCC23OC2(C)CCC2C(CN(C)C)C(=O)OC2C13.Cl` (stereo not drawn) [13-dimethylamino-1,10β-epoxy-5,7α,6, 11 β(H)-guai-3,4-ene-6,12-olide hydrochloride, reference compound]: in data set [1], the “LD500” value came to 20.6 mg/mL.
With “hydroxyarglabin acetate [hydroxyarglabin acetate 12]”, in data set [1], the “IC50 against the larvae of Artemia salina” value was 77.8 µg/mL and the “LD500” value is listed as 77.8 mg/mL.
In the case of `C=C1C(=O)O[C@@H]2[C@H]3C(C)=CC[C@@]34O[C@@]4(C)CC[C@@H]12` [Arglabin 6, arglabin], the inhibition at 8.3 µM in the data set on HCT-15 was found to be 75.4%; in the data set with K-562, 73.8%; in the data set on RXF 393 it was 67.3%; with COLO 205, 57.6%; in the data set with T-47D, 73.5%; with HT29 it was 59.3%. In addition, the inhibition at 8.3 µM was determined as 97.8% in the data set with SR; 69.6% in the data set with OVCAR-3; 55.9% in the data set with UACC-257; 74.2% in the data set with UACC-62; 70.9% in the data set with SW-620; 71.1% in the data set on MCF7. Moreover, the inhibition at 8.3 µM was determined as 73.4% in the data set on CAKI-1; 72.1% in the data set on BT-549; 97.4% in the data set on HL-60(TB); 94.3% in the data set on TK-10; 82.6% in the data set on HCT-116; 65.8% with MDA-MB-435. The inhibition at 8.3 µM came to 45.9% in data set [3] (Homo sapiens, read-out: average value of cell growth inhibition for all 60 NCI60 human tumor cell lines) and 88.5% in the data set on DU-145. Besides, the immunosuppressive activity result in [2] was “does not exhibit immunosuppressive activity”. Besides, the “depressant effect on hematopoiesis” value in “Effect on hematopoiesis” is recorded as “does not have a depressant effect on hematopoiesis”. Further, the “Mean tumor cell growth, %” value in data set [3] (mean over NCI60 panel, single dose 8.3 μM) is given as 54.15%.
`C[S+](C)[O-]` [dimethyl sulfoxide]: the “LD500” value in data set [1] stood at 930.27 mg/mL.

As usually defined, the inhibition is the drop in the measured response relative to a control, in per cent.

Source of the values: publication PMC10763179 (Open access Macedonian journal of medical sciences, 2023).
